The values below come from patent US20230172204A1 (BASF SE, priority 2020, published 2023).

Each structure is given as a SMILES string.

The subject of assay [1] is Phakopsora pachyrhizi (F129L). The assay is described as follows: Protective control of soybean rust on soybeans (PHAKPA P6). As to conditions: for % PHAKPA (F129L) Disease level P6 at 4 ppm: protective P6, 4 ppm; for % PHAKPA (F129L) Disease level P6 at 4 ppm / % PHAKPA (F129L) Disease level P6 at 16 ppm: soybean rust F129L; for % PHAKPA (F129L) Disease level P6 at 16 ppm: protective P6, 16 ppm. The format is in vivo.

Assay [2] concerns Phakopsora pachyrhizi (F129L). Description: Protective control of soybean rust on soybeans (PHAKPA P2). As to conditions: for % PHAKPA (F129L) Disease level P2 at 4 ppm: protective P2, 4 ppm; for % PHAKPA (F129L) Disease level P2 at 4 ppm / % PHAKPA (F129L) Disease level P2 at 16 ppm: soybean rust F129L; for % PHAKPA (F129L) Disease level P2 at 16 ppm: protective P2, 16 ppm. The class given is in vivo.

As for `CNC(=O)/C(=N/OC)c1cccc(C)c1CO/N=C(\C)c1cccc(C2CC2)c1` [compound 299], in assay [1], the “% PHAKPA (F129L) Disease level P6 at 4 ppm” value is 53% and the “% PHAKPA (F129L) Disease level P6 at 16 ppm” value came out at 22%. In assay [2], the “% PHAKPA (F129L) Disease level P2 at 4 ppm” value turned out to be 53% and the “% PHAKPA (F129L) Disease level P2 at 16 ppm” value is 13%.
Turning to `CO/N=C(/C(=O)OC)c1cccc(C)c1CO/N=C(\C)c1cccc(C(C)C)c1` [compound 95], in assay [1], the “% PHAKPA (F129L) Disease level P6 at 4 ppm” value was 33% and the “% PHAKPA (F129L) Disease level P6 at 16 ppm” value is 4%. In assay [2], the “% PHAKPA (F129L) Disease level P2 at 4 ppm” value is 11% and the “% PHAKPA (F129L) Disease level P2 at 16 ppm” value is 0%.
On to `CO/N=C(/C(=O)OC)c1cccc(C)c1CO/N=C(\C)c1ccc(-c2cc(C)on2)cc1` [compound 63], for which, in assay [1], the “% PHAKPA (F129L) Disease level P6 at 4 ppm” value amounted to 93% and the “% PHAKPA (F129L) Disease level P6 at 16 ppm” value came out at 77%. In addition, in assay [2], the “% PHAKPA (F129L) Disease level P2 at 4 ppm” value was found to be 90% and the “% PHAKPA (F129L) Disease level P2 at 16 ppm” value came out at 77%.
Regarding `CNC(=O)/C(=N/OC)c1ccccc1CO/N=C(\C)c1cccc(Br)c1` [reference compound], the “PHAKPA (F129L) Disease level (%) P6 at 4 ppm” value in assay [1] (P6 protective, 4 ppm, % diseased leaf area) worked out at 70%. For the same compound, in assay [2] (P2 protective, 4 ppm, % diseased leaf area), the “PHAKPA (F129L) Disease level (%) P2 at 4 ppm” value is reported as 27%.
As for `CNC(=O)/C(=N/OC)c1cccc(C)c1CO/N=C(\C)c1ccc(OC(F)(F)F)cc1C(F)(F)F` [compound 363], in assay [1], the “% PHAKPA (F129L) Disease level P6 at 4 ppm” value was found to be 25% and the “% PHAKPA (F129L) Disease level P6 at 16 ppm” value is 2%. In addition, in assay [2], the “% PHAKPA (F129L) Disease level P2 at 4 ppm” value was found to be 29% and the “% PHAKPA (F129L) Disease level P2 at 16 ppm” value turned out to be 1%.
On the same counts, the results for `C=Cc1cc(/C(C)=N/OCc2c(C)cccc2/C(=N\OC)C(=O)NC)cc(C(F)(F)F)c1` [compound 152] are 38%, 7%, 24% and 1%.
The corresponding values for `CO/N=C(/C)c1ccccc1/C(C)=N/OCc1c(C)cccc1/C(=N\OC)C(=O)OC` [compound 187] are 90%, 90%, 100% and 100%.
On the same counts, the results for `CO/N=C(/C(=O)OC)c1cccc(C)c1CO/N=C(\C)c1ccc(OC)cc1OC(F)(F)F` [compound 373] are 100%, 38%, 77% and 27%.
For the compound `CO/N=C(/C(=O)OC)c1cccc(C)c1CO/N=C(\C)c1cc(C2CC2)cc(C(F)(F)F)c1` [compound 145], in assay [1], the “% PHAKPA (F129L) Disease level P6 at 4 ppm” value is on record as 37% and the “% PHAKPA (F129L) Disease level P6 at 16 ppm” value amounted to 16%. Also, in assay [2], the “% PHAKPA (F129L) Disease level P2 at 4 ppm” value is reported as 28% and the “% PHAKPA (F129L) Disease level P2 at 16 ppm” value was determined as 8%.
On the same counts, the results for `CNC(=O)/C(=N/OC)c1cccc(C)c1CO/N=C(\C)c1c(F)ccc(C(F)(F)F)c1F` [compound 162] are 1%, 0%, 0% and 0%.
The corresponding values for `C#Cc1cccc(/C(C)=N/OCc2c(C)cccc2/C(=N\OC)C(=O)NC)c1` [compound 54] are 20%, 0%, 0% and 1%.
For `CNC(=O)/C(=N/OC)c1cccc(C)c1CO/N=C(\C)c1c(F)cccc1C(F)(F)F` [compound 345], in assay [1], the “% PHAKPA (F129L) Disease level P6 at 4 ppm” value was determined as 32% and the “% PHAKPA (F129L) Disease level P6 at 16 ppm” value stood at 1%. Moreover, in assay [2], the “% PHAKPA (F129L) Disease level P2 at 4 ppm” value amounted to 22% and the “% PHAKPA (F129L) Disease level P2 at 16 ppm” value stood at 1%.
For `CO/N=C(/C(=O)OC)c1cccc(C)c1CO/N=C(\C)c1ccccc1CC(F)(F)F` [compound 222], in assay [1], the “% PHAKPA (F129L) Disease level P6 at 4 ppm” value is 100% and the “% PHAKPA (F129L) Disease level P6 at 16 ppm” value was 93%. Further, in assay [2], the “% PHAKPA (F129L) Disease level P2 at 4 ppm” value amounted to 100% and the “% PHAKPA (F129L) Disease level P2 at 16 ppm” value turned out to be 57%.
With `CO/N=C(/C(=O)OC)c1cccc(C)c1CO/N=C(\C)c1ccc(Cc2ccccc2)cc1C(F)(F)F` [compound 408], in assay [1], the “% PHAKPA (F129L) Disease level P6 at 4 ppm” value worked out at 33% and the “% PHAKPA (F129L) Disease level P6 at 16 ppm” value is given as 13%. Also, in assay [2], the “% PHAKPA (F129L) Disease level P2 at 4 ppm” value amounted to 30% and the “% PHAKPA (F129L) Disease level P2 at 16 ppm” value is recorded as 12%.
On the same counts, the results for `CNC(=O)/C(=N/OC)c1cccc(C)c1CO/N=C(\C)c1c(Cl)ccc(Cl)c1OC(F)(F)F` [compound 441] are 97%, 50%, 100% and 43%.
The corresponding values for `C#Cc1cc(F)ccc1/C(C)=N/OCc1c(C)cccc1/C(=N\OC)C(=O)NC` [compound 286] are 97%, 27%, 67% and 15%.
The corresponding values for `CO/N=C(/C(=O)OC)c1cccc(C)c1CO/N=C(\C)c1cc(C(F)(F)F)cc(F)c1F` [compound 180] are 5%, 0%, 40% and 7%.
For the compound `CO/N=C(/C(=O)OC)c1cccc(C)c1CO/N=C(\C)c1c(Cl)cc(Cl)cc1OC(F)(F)F` [compound 427], in assay [1], the “% PHAKPA (F129L) Disease level P6 at 4 ppm” value stood at 60% and the “% PHAKPA (F129L) Disease level P6 at 16 ppm” value was found to be 47%. Besides, in assay [2], the “% PHAKPA (F129L) Disease level P2 at 4 ppm” value came out at 100% and the “% PHAKPA (F129L) Disease level P2 at 16 ppm” value stood at 90%.
On the same counts, the results for `CO/N=C(/C(=O)OC)c1cccc(C)c1CO/N=C(\C)c1ccc(-c2ccccc2)cc1C(F)(F)F` [compound 414] are 53%, 15%, 53% and 9%.
For `CNC(=O)/C(=N/OC)c1cccc(C)c1CO/N=C(\C)c1ccc(F)c(F)c1` [compound 132], in assay [1], the “% PHAKPA (F129L) Disease level P6 at 4 ppm” value stood at 6% and the “% PHAKPA (F129L) Disease level P6 at 16 ppm” value is 0%. In assay [2], the “% PHAKPA (F129L) Disease level P2 at 4 ppm” value is recorded as 1% and the “% PHAKPA (F129L) Disease level P2 at 16 ppm” value came to 0%.
Regarding `CNC(=O)/C(=N/OC)c1cccc(C)c1CO/N=C(\C)c1cc(C#N)cc(C(F)(F)F)c1` [compound 46], in assay [1], the “% PHAKPA (F129L) Disease level P6 at 4 ppm” value is given as 90% and the “% PHAKPA (F129L) Disease level P6 at 16 ppm” value is reported as 57%. Also, in assay [2], the “% PHAKPA (F129L) Disease level P2 at 4 ppm” value is 63% and the “% PHAKPA (F129L) Disease level P2 at 16 ppm” value is on record as 50%.
The corresponding values for `CO/N=C(/C(=O)OC)c1cccc(C)c1CO/N=C(\C)c1ccc(OC)cc1C(F)(F)F` [compound 328] are 23%, 5%, 33% and 8%.
For `CO/N=C(/C(=O)OC)c1cccc(C)c1CO/N=C(\CC1CC1)c1cccc(C(F)(F)F)c1` [compound 215], in assay [1], the “% PHAKPA (F129L) Disease level P6 at 4 ppm” value was 87% and the “% PHAKPA (F129L) Disease level P6 at 16 ppm” value is 33%. Moreover, in assay [2], the “% PHAKPA (F129L) Disease level P2 at 4 ppm” value was 87% and the “% PHAKPA (F129L) Disease level P2 at 16 ppm” value turned out to be 37%.
Turning to `CO/N=C(/C)c1ccc(/C(C)=N/OCc2c(C)cccc2/C(=N\OC)C(=O)OC)c(C(F)(F)F)c1` [compound 417], in assay [1], the “% PHAKPA (F129L) Disease level P6 at 4 ppm” value is 63% and the “% PHAKPA (F129L) Disease level P6 at 16 ppm” value was found to be 22%. Further, in assay [2], the “% PHAKPA (F129L) Disease level P2 at 4 ppm” value came out at 35% and the “% PHAKPA (F129L) Disease level P2 at 16 ppm” value is given as 18%.
The corresponding values for `CO/N=C(/C(=O)OC)c1cccc(C)c1CO/N=C(\C)c1cc(C#N)cc(C(F)(F)F)c1` [compound 48] are 100%, 67%, 100% and 80%.
Consider `CNC(=O)/C(=N/OC)c1cccc(C)c1CO/N=C(\C)c1c(F)cc(F)cc1F` [compound 170], for which, in assay [1], the “% PHAKPA (F129L) Disease level P6 at 4 ppm” value is recorded as 4% and the “% PHAKPA (F129L) Disease level P6 at 16 ppm” value is listed as 0%. Also, in assay [2], the “% PHAKPA (F129L) Disease level P2 at 4 ppm” value is recorded as 9% and the “% PHAKPA (F129L) Disease level P2 at 16 ppm” value was found to be 0%.
On to `CO/N=C(/C(=O)OC)c1ccccc1CO/N=C(\C)c1cccc(Br)c1` [reference compound], for which, in assay [1] (P6 protective, 16 ppm, % diseased leaf area), the “PHAKPA (F129L) Disease level (%) P6 at 16 ppm” value is 87%. For the same compound, in assay [2] (P2 protective, 16 ppm, % diseased leaf area), the “PHAKPA (F129L) Disease level (%) P2 at 16 ppm” value is listed as 80%.
On to `CNC(=O)/C(=N/OC)c1cccc(C)c1CO/N=C(\C)c1cc(Br)cc(F)c1F` [compound 241], for which, in assay [1], the “% PHAKPA (F129L) Disease level P6 at 4 ppm” value is given as 33% and the “% PHAKPA (F129L) Disease level P6 at 16 ppm” value is listed as 12%. Besides, in assay [2], the “% PHAKPA (F129L) Disease level P2 at 4 ppm” value worked out at 3% and the “% PHAKPA (F129L) Disease level P2 at 16 ppm” value stood at 0%.
The corresponding values for `CNC(=O)/C(=N/OC)c1cccc(C)c1CO/N=C(\C)c1ccc(F)cc1CC(F)(F)F` [compound 394] are 12%, 2%, 9% and 3%.
The corresponding values for `CNC(=O)/C(=N/OC)c1cccc(C)c1CO/N=C(\C)c1c(F)ccc(C(F)(F)F)c1NC` [compound 233] are 87%, 27%, 100% and 57%.
